The text below walks through data of patent US9777003B2, “Tricyclic heterocycles as bet protein inhibitors” (Incyte Corporation, priority 2013, dated 2017).

Structures can show the parent of a compound that is named as a salt.

The target in one assay is BRD4-BD1 (Homo sapiens (Human), UniProt O60885). Briefly: BRD4 AlphaScreen assay, BRD4-BD1. Format: binding. The note with it: biotin-labeled tetra-acetylated histone H4 peptide, 75 min, room temperature, read-out: BRD4 BD-1 enzyme IC50. Summed up:
(§1)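 Bromodomain–H4Ac4 peptide (50 nM) proximity assay; BD1 at 3.8 nM, BD2 at 20 nM. Reaction 75 min RT, bead detection 75 min in the dark, IC50 by dose-response fit.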
In general terms: In Alpha technology, singlet oxygen from a donor bead excites a nearby acceptor bead.

The next assay has as its target BRD4-BD2 (Homo sapiens (Human), UniProt O60885). Briefly: BRD4 AlphaScreen assay, BRD4-BD2. Format: binding. The note with it: biotin-labeled tetra-acetylated histone H4 peptide, 75 min, room temperature, read-out: BRD4 BD-2 enzyme IC50. Summed up: as §1

With `Cc1nnc2ccc3c(cc(C(=O)N(C)C)n3Cc3ccccc3)n12` [Example 94, 6-benzyl-N,N,1-trimethyl-6H-pyrrolo[2,3-e][1,2,4]triazolo[4,3-a]pyridine-7-carboxamide], the IC50 on BRD4-BD1 and on BRD4-BD2 was 100 to 1000 nM throughout.
In the case of `Cc1nnc2ccc3c(cc(CO)n3Cc3ccccc3)n12` [Example 56, (6-benzyl-1-methyl-6H-pyrrolo[2,3-e][1,2,4]triazolo[4,3-a]pyridin-7-yl)methanol], the 50% inhibitory concentration (IC50) (in general, the concentration that inhibits the measured activity by half) is 100 to 1000 nM on BRD4-BD1 and no more than 100 nM at BRD4-BD2.
On the same counts, the results for `Cc1nnc2ccc3c(cc(C4CCNC4)n3Cc3ccccc3)n12` (racemic) [Example 186, 6-Benzyl-1-methyl-7-pyrrolidin-3-yl-6H-pyrrolo[2,3-e][1,2,4]triazolo[4,3-a]pyridine bis(trifluoroacetate) Salt] are 1000 to 10000 nM and 100 to 1000 nM.
Taken in the same sequence, the figures for `Cc1nnc2ccc3c(cc(C(=O)N[C@H]4C[C@@H](C#N)C4)n3Cc3ccccc3)n12` [Example 101, 6-benzyl-N-(cis-3-cyanocyclobutyl)-1-methyl-6H-pyrrolo[2,3-e][1,2,4]triazolo[4,3-a]pyridine-7-carboxamide] were 100 to 1000 nM and 100 to 1000 nM.
Taken in the same sequence, the figures for `Cc1nnc2ccc3c(cc(-c4ccn(CCC(=O)N5CCC5)n4)n3Cc3cccc(Cl)c3)n12` [Example 104, 7-[1-(3-azetidin-1-yl-3-oxopropyl)-1H-pyrazol-3-yl]-6-(3-chlorobenzyl)-1-methyl-6H-pyrrolo[2,3-e][1,2,4]triazolo[4,3-a]pyridine] were no more than 100 nM and no more than 100 nM.
As for `Cc1nnc2ccc3c(cc(C(=O)NCC4CNC4)n3Cc3ccccc3)n12` [Example 124, N-(Azetidin-3-ylmethyl)-6-benzyl-1-methyl-6H-pyrrolo[2,3-e][1,2,4]triazolo[4,3-a]pyridine-7-carboxamide bis(trifluoroacetate) Salt], the IC50 at BRD4-BD1 and at BRD4-BD2 was 1000 to 10000 nM throughout.
As to `CC(=O)N1CC(CC#N)(n2ccc(-c3cc4c(ccc5nnc(C)n54)n3Cc3ccccc3)n2)C1` [Example 91, {1-acetyl-3-[3-(6-benzyl-1-methyl-6H-pyrrolo[2,3-e][1,2,4]triazolo[4,3-a]pyridin-7-yl)-1H-pyrazol-1-yl]azetidin-3-yl}acetonitrile], the IC50 at BRD4-BD1 and on BRD4-BD2 was no more than 100 nM in each case.
In the case of `Cc1cc2c(cc(NCCCN(C)C)c3nnc(C)n32)n1Cc1ccccc1` [Example 245, N1-(6-Benzyl-1,7-dimethyl-6H-pyrrolo[2,3-e][1,2,4]triazolo[4,3-a]pyridin-4-yl)-N3,N3-dimethylpropane-1,3-diamine], the concentration for half-maximal inhibition (IC50) at BRD4-BD1 and at BRD4-BD2 was no more than 100 nM in each case.
For `Cc1nnc2ccc3c(ccn3Cc3ccccc3)n12` [Example 1, 6-benzyl-1-methyl-6H-pyrrolo[2,3-e][1,2,4]triazolo[4,3-a]pyridine], the values for the IC50 at BRD4-BD1 and at BRD4-BD2 were 100 to 1000 nM and no more than 100 nM, respectively.
Taken in the same sequence, the figures for `Cc1cc2c(cc(NC3CCCCC3)c3nnc(C)n32)n1Cc1ccccc1` [Example 232, 6-Benzyl-N-cyclohexyl-1,7-dimethyl-6H-pyrrolo[2,3-e][1,2,4]triazolo[4,3-a]pyridin-4-amine] were 100 to 1000 nM and 100 to 1000 nM.
As to `Cc1cc2c(cc(NC(N)=O)c3nnc(C)n32)n1Cc1cc(F)cc(F)c1` [Example 233, 1-(6-(3,5-Difluorobenzyl)-1,7-dimethyl-6H-pyrrolo[2,3-e][1,2,4]triazolo[4,3-a]pyridin-4-yl)urea], the IC50 on BRD4-BD1 and on BRD4-BD2 was no more than 100 nM in each case.
With `Cc1nnc2ccc3c(cc(-c4cn[nH]c4)n3Cc3ccccc3)n12` [Example 63, 6-benzyl-1-methyl-7-(1H-pyrazol-4-yl)-6H-pyrrolo[2,3-e][1,2,4]triazolo[4,3-a]pyridine], the concentration for half-maximal inhibition (IC50) at BRD4-BD1 and at BRD4-BD2 was no more than 100 nM throughout.
With `Cc1nnc2ccc3c(cc(C(=O)NCC4CC4)n3Cc3cccc(Cl)c3)n12` [Example 114, 6-(3-Chlorobenzyl)-N-(cyclopropylmethyl)-1-methyl-6H-pyrrolo[2,3-e][1,2,4]triazolo[4,3-a]pyridine-7-carboxamide Trifluoroacetate Salt], the IC50 on BRD4-BD1 and on BRD4-BD2 was no more than 100 nM in each case.
Regarding `CN[C@H]1CC[C@@H](Nc2cc3c(cc(C)n3Cc3ccccc3)n3c(C)nnc23)CC1` [Example 221, cis-N-(6-Benzyl-1,7-dimethyl-6H-pyrrolo[2,3-e][1,2,4]triazolo[4,3-a]pyridin-4-yl)-N′-methylcyclohexane-1,4-diamine], the IC50 on BRD4-BD1 and on BRD4-BD2 was no more than 100 nM each time.
Take `Cc1cc2c(cc(NC3CCN(C(=O)OC(C)(C)C)CC3)c3nnc(C)n32)n1Cc1ccccc1` [Example 214, tert-Butyl 4-[(6-benzyl-1,7-dimethyl-6H-pyrrolo[2,3-e][1,2,4]triazolo[4,3-a]pyridin-4-yl)amino]piperidine-1-carboxylate]: the half-maximal inhibitory concentration (IC50) at BRD4-BD1 was 100 to 1000 nM; at BRD4-BD2, no more than 100 nM.
Regarding `Cc1nnc2ccc3c(cc(-c4ncco4)n3Cc3cc(Cl)cc(CN4CC(C)(C)C4)c3)n12` [Example 196, 6-{3-Chloro-5-[(3,3-dimethylazetidin-1-yl)methyl]benzyl}-1-methyl-7-(1,3-oxazol-2-yl)-6H-pyrrolo[2,3-e][1,2,4]triazolo[4,3-a]pyridine bis(trifluoroacetate) Salt], the half-inhibitory concentration (IC50) on BRD4-BD1 and at BRD4-BD2 was no more than 100 nM each time.
Take `Cc1cc2c(ccc3nnc(C)n32)n1Cc1cccc(CN(C)C)c1` [Example 40, 1-{3-[(1,7-dimethyl-6H-pyrrolo[2,3-e][1,2,4]triazolo[4,3-a]pyridin-6-yl)methyl]phenyl}-N,N-dimethylmethanamine]: the concentration for half-maximal inhibition (IC50) on BRD4-BD1 and on BRD4-BD2 was no more than 100 nM in each case.
For `Cc1nnc2ccc3c(cc(-c4cn(CCN5CCOCC5)cn4)n3Cc3ccccc3)n12` [Example 75, 6-benzyl-1-methyl-7-[1-(2-morpholin-4-ylethyl)-1H-imidazol-4-yl]-6H-pyrrolo[2,3-e][1,2,4]triazolo[4,3-a]pyridine], the IC50 on BRD4-BD1 and on BRD4-BD2 was no more than 100 nM throughout.
With `Cc1cc2c(ccc3nnc(C)n32)n1Cc1ccc(CO)cc1` [Example 49, {4-[(1,7-dimethyl-6H-pyrrolo[2,3-e][1,2,4]triazolo[4,3-a]pyridin-6-yl)methyl]phenyl}methanol], the 50% inhibitory concentration (IC50) at BRD4-BD1 was 100 to 1000 nM; at BRD4-BD2, no more than 100 nM.
Taken in the same sequence, the figures for `Cc1nnc2ccc3c(cc(-c4c[nH]cn4)n3Cc3ccccc3)n12` [Example 74, 6-benzyl-7-(1H-imidazol-4-yl)-1-methyl-6H-pyrrolo[2,3-e][1,2,4]triazolo[4,3-a]pyridine] were no more than 100 nM and no more than 100 nM.
Taken in the same sequence, the figures for `Cc1nnc2ccc3c(ccn3C(C)c3ccccc3)n12` (racemic) [Example 4, 1-methyl-6-(1-phenylethyl)-6H-pyrrolo[2,3-e][1,2,4]triazolo[4,3-a]pyridine] were 100 to 1000 nM and no more than 100 nM.
Taken in the same sequence, the figures for `Cc1cc2c(cc(NCC3CN(C(=O)OC(C)(C)C)C3)c3nnc(C)n32)n1Cc1ccccc1` [Example 243, tert-Butyl 3-((6-benzyl-1,7-dimethyl-6H-pyrrolo[2,3-e][1,2,4]triazolo[4,3-a]pyridin-4-ylamino)methyl)azetidine-1-carboxylate] were 100 to 1000 nM and no more than 100 nM.
`Cc1nnc2ccc3c(cc(C(N)=O)n3Cc3ccccc3)n12` [Example 58, 6-benzyl-1-methyl-6H-pyrrolo[2,3-e][1,2,4]triazolo[4,3-a]pyridine-7-carboxamide]: the 50% inhibitory concentration (IC50) at BRD4-BD1 and on BRD4-BD2 was no more than 100 nM each time.
In the case of `CNC(=O)c1cc2c(ccc3nnc(C)n32)n1Cc1cccc(Cl)c1` [Example 99, 6-(3-chlorobenzyl)-N,1-dimethyl-6H-pyrrolo[2,3-e][1,2,4]triazolo[4,3-a]pyridine-7-carboxamide], the IC50 on BRD4-BD1 and at BRD4-BD2 was no more than 100 nM throughout.
`Cc1cc2c(ccc3nnc(C)n32)n1Cc1cccc(CN2CCNCC2)c1` [Example 48, 1,7-dimethyl-6-[3-(piperazin-1-ylmethyl)benzyl]-6H-pyrrolo[2,3-e][1,2,4]triazolo[4,3-a]pyridine]: the figures for the IC50 on BRD4-BD1 and at BRD4-BD2 were 100 to 1000 nM and no more than 100 nM, respectively.
On the same counts, the results for `Cc1nnc2ccc3c(cc(C(=O)NC(C)C)n3Cc3ccccc3)n12` [Example 84, 6-benzyl-N-isopropyl-1-methyl-6H-pyrrolo[2,3-e][1,2,4]triazolo[4,3-a]pyridine-7-carboxamide] are 100 to 1000 nM and 100 to 1000 nM.
Consider `Cc1nnc2ccc3c(cc(C(=O)NC4CCC4)n3Cc3ccccc3)n12` [Example 85, 6-benzyl-N-cyclobutyl-1-methyl-6H-pyrrolo[2,3-e][1,2,4]triazolo[4,3-a]pyridine-7-carboxamide], for which the 50% inhibitory concentration (IC50) at BRD4-BD1 and on BRD4-BD2 was no more than 100 nM throughout.
Take `Cc1cc2c(ccc3nnc(C)n32)n1Cc1ccc(CN2CCC2)cc1` [Example 50, 6-[4-(azetidin-1-ylmethyl)benzyl]-1,7-dimethyl-6H-pyrrolo[2,3-e][1,2,4]triazolo[4,3-a]pyridine]: the 50% inhibitory concentration (IC50) at BRD4-BD1 and at BRD4-BD2 was no more than 100 nM in each case.
For `Cc1nnc2ccc3c(cc(C(F)(F)F)n3Cc3ccccc3)n12` [Example 138, 6-Benzyl-1-methyl-7-(trifluoromethyl)-6H-pyrrolo[2,3-e][1,2,4]triazolo[4,3-a]pyridine Trifluoroacetate Salt], the half-maximal inhibitory concentration (IC50) at BRD4-BD1 and at BRD4-BD2 was 100 to 1000 nM in each case.
For the compound `Cc1nnc2ccc3c(cc(-c4cnn(CC#N)c4)n3Cc3ccccc3)n12` [Example 64, [4-(6-benzyl-1-methyl-6H-pyrrolo[2,3-e][1,2,4]triazolo[4,3-a]pyridin-7-yl)-1H-pyrazol-1-yl]acetonitrile], the IC50 at BRD4-BD1 and at BRD4-BD2 was no more than 100 nM throughout.
